± gives the expanded uncertainty stated by the source.

For data set [1] the following is noted: 298 K; 101.33 kPa; Crystal 2; X-ray diffraction.
Data set [2] in a line: Solid-liquid equilibrium temperature. The conditions noted are these: 101.3 kPa, DSC.
Data set [3] is described as follows: Molar enthalpy of transition or fusion. The conditions noted are these: DSC.

By mass density is commonly meant mass per unit of volume. Take `O=C(O)c1cccnc1` [3-carboxylpyridine]: the mass density in data set [1] came out at 1471 ± 2 kg/m3. In addition, the Solid-liquid equilibrium temperature in data set [2] (Crystal 1) is reported as 507 ± 2 K; in data set [2] (Crystal 2), 453.6 ± 0.3 K. Besides, the “Molar enthalpy of transition or fusion” value in data set [3] (Crystal 1) turned out to be 6.62 ± 0.191 kcal/mol; in data set [3] (Crystal 2), 0.308 ± 0.0311 kcal/mol.

The values above are taken from the NIST ThermoML archive (doi:10.1016/j.jct.2011.11.023).
